As a reminder, the bioavailability is dose-corrected exposure relative to a reference, in per cent. Usually Papp A→B stands for the apparent permeability from the apical to the basolateral side of a cell layer. A low value points to slow passage. Usually Papp B→A stands for how fast a substance crosses the layer from the basolateral side. Usually IC50 stands for the midpoint of a concentration-inhibition curve.

This is an account of results in patent publication US12060338B2, “Benzothia(di)azepine compounds and their use as bile acid modulators” (Albireo AB, priority 2019, dated 2024).

Series [1] is described as follows: Bioavailability study in rats. In kind it is in vivo. As to conditions: male, Wistar, plasma; rat; 1 mg/kg intravenous, 10 mg/kg oral. On the procedure: (§1) Male mice (C57BL/6 or CD1) or Wistar rats of 8-10 weeks old were used. For each test compound, two groups of 3 animals each were used. One group was administered a single intravenous dose of 1 mg/kg (vehicle 100% DMSO) through the tail vein and the other group was administered a single oral dose of 10 mg/kg through gavage needle. The group that was administered an oral dose was fasted overnight. Blood samples were collected after 0.083, 0.25, 0.5, 1, 2, 4, 6, 8 and 24 hours following intravenous administration, and after 0.25, 0.5, 1, 2, 4, 6, 8 and 24 hours following oral administration. Blood samples were taken from saphenous vein. 0.2% EDTA was used as the anticoagulant. The samples were analyzed by a discovery grade bioanalytical method developed for the estimation of test compound in plasma, using an LC-MS/MS system.

Series [2] is described as follows: Bidirectional permeability assay (Caco-2 cells). In kind it is in vitro ADME. As to conditions: human; for Papp A→B at 120 min, 10 µM: Caco-2, pH 7.4, absorptive direction A2B; for Papp B→A at 120 min, 10 µM: Caco-2, pH 7.4, secretory direction B2A. The text has this: HepaRG-Based Assay Protocol
On the technique in general: Caco-2 cells form a polarised layer with tight junctions and transporters.

The target of the next series is T1, Human LBAT (Homo sapiens, UniProt Q14973).
T1 construct: expressed in transfected cells; kept under Geneticin selection
T1 sequence (Q14973 1-349): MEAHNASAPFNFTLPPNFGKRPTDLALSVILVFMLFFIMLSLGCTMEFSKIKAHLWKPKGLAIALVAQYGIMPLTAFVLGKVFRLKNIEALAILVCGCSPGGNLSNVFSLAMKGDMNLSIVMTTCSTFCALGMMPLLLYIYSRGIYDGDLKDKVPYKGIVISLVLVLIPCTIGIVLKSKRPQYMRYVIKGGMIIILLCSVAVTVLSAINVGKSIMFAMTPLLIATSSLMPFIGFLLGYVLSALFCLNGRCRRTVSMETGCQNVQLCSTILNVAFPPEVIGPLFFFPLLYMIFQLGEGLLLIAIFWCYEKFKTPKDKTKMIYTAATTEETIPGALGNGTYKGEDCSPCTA
Nature of the series: LBAT assay, 3H-taurocholic acid uptake in human LBAT-overexpressing cells. In kind it is cell-based. As to conditions: read-out: hLBAT IC50. On the procedure:
20,000 cells (Human or Mouse LBAT-overexpressing cells) were seeded in 96-wells plate (Corning CLS3809) in 100 μL MEM-alpha medium (Gibco 12571-063) supplemented with 10% FBS (Gibco 10438026) containing Geneticin (Gibco 10131-027) (1 mg/mL) and incubated at 37° C. in 5% CO2 for 24 hours. After incubation, media was decanted from the wells and cells were washed two times with 300 μL of basal MEM-alpha medium (FBS-free). After decanting basal MEM-alpha medium each time, plates were tapped against paper towel to ensure maximum removal of residual media.
For human LBAT, incubation mix was prepared by adding test inhibitor dilutions (3-fold serial dilution in DMSO (Sigma D2650), 10 points) in MEM-alpha (without FBS) containing 0.3 μM 3H-taurocholic acid (ARC ART-1368) and 7.5 μM cold taurocholic acid (Sigma T4009) (maintaining 0.2% final DMSO concentration). For mouse LBAT, incubation mix was prepared by adding test inhibitor dilutions (3-fold serial dilution in DMSO, 10 points) in MEM-alpha (without FBS) containing 0.3 μM 3H-taurocholic acid and 25 μM cold taurocholic acid maintaining 0.2% final DMSO concentration).
50 μL of incubation mix containing test inhibitors was then added to the wells (in duplicate) and the plates were incubated for 20 minutes in a CO2 incubator at 37° C. After incubation, the reaction was stopped by keeping the plates on ice water mix for 2-3 minutes and then the incubation mix was aspirated completely from the wells. The wells were washed two times with 250 μL of chilled unlabelled 1 mM taurocholic acid dissolved in HEPES (Gibco 15630080)-buffered (10 mM) HBSS (Gibco 14175079) (pH 7.4). The plates were tapped against a paper towel after every wash to ensure maximum removal of blocking buffer.
100 μL of MicroScint-20 (PerkinElmer 6013621) was added to the wells and kept overnight at room temperature before reading the plates in TopCount NXT™ Microplate Scintillation and Luminescence Counter from PerkinElmer under 3H Test protocol (set at 120 seconds reading time per well, with normal plate orientation).
(§2) All test compounds were provided in powder form at room temperature. 10 mM DMSO stocks of the test compounds were prepared, aliquoted and stored at −20° C. From the 10 mM DMSO stock of the compounds, a 3-fold serial dilution in DMSO was prepared to get a total of 10 dilutions of the test compounds. 0.5 μL of this dilution in DMSO was added to 250 μL of FBS-free basal media containing 3H-taurocholic acid and cold taurocholic acid to prepare the incubation mixture.

Another series concerns the target T2, Human IBAT (Homo sapiens, UniProt Q12908).
T2 construct: expressed in transfected cells; kept under Puromycin selection
T2 sequence (Q12908 1-348): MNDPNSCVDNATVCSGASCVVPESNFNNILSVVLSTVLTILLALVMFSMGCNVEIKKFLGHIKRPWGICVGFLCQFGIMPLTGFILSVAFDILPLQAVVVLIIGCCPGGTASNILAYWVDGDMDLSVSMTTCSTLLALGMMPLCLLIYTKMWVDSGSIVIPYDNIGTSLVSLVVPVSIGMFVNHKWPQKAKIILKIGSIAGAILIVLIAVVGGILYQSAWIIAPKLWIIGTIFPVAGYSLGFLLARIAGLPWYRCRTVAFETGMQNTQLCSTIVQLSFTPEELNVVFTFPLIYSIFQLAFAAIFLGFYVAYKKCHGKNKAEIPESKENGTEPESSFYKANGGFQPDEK
Nature of the series: IBAT assay, 3H-taurocholic acid uptake in human IBAT-overexpressing cells. In kind it is cell-based. As to conditions: read-out: hIBAT IC50. On the procedure:
10,000 cells (Human or Mouse IBAT-overexpressing cells) were seeded in 96-wells plate (Corning CLS3809) in 200 μL MEM-alpha medium (Gibco 12571-063) supplemented with 10% FBS (Gibco 10438026) containing Puromycin (Gibco A1113803) (10 μg/mL) and incubated at 37° C. in 5% CO2 for 48 hours. After incubation, media was decanted from the wells and cells were washed two times with 300 μL of basal MEM-alpha medium (FBS-free). After decanting basal MEM-alpha medium each time, plates were tapped against paper towel to ensure maximum removal of residual media.
Test inhibitor dilutions (highest test concentration being 10 μM, 3-fold serial dilution, 10 points) prepared in DMSO (Sigma D2650) were added in incubation mix (maintaining 0.2% final DMSO concentration) containing 0.25 μM 3H-taurocholic acid (ARC ART-1368) and 5 μM of cold taurocholic acid (Sigma T4009). 50 μL of incubation mix containing test inhibitors was then added to the wells (in duplicate) and the plates were incubated for 20 minutes in a CO2 incubator at 37° C. After incubation, the reaction was stopped by keeping the plates on ice water mix for 2-3 minutes and then the incubation mix was aspirated completely from the wells. The wells were washed two times with 250 μL of chilled unlabelled 1 mM taurocholic acid dissolved in HEPES (Gibco 15630080)-buffered (10 mM) HBSS (Gibco 14175079) (pH 7.4). The plates were tapped against a paper towel after every wash to ensure maximum removal of blocking buffer.
100 μL of MicroScint-20 (PerkinElmer 6013621) was added to the wells and kept overnight at room temperature before reading the plates in TopCount NXT™ Microplate Scintillation and Luminescence Counter from PerkinElmer under 3H Test protocol (set at 120 seconds reading time per well).
as §2

The subject of a further series is urinary total bile acids. Nature of the series: Urinary bile acid output in dogs. The series is classed as in vivo. As to conditions: male Beagle dogs, once daily for three days at 10 and 50 mg/kg. On the procedure: Male Beagle dogs were used in the study. Animals were dosed with the compound of Example 2 once daily for three days at 10 and 50 mg/kg, respectively. Basal urine samples were collected before study start by cystocentesis. Urine samples were then collected at 2 h and 8 h post-dosing on Day 1 and Day 3. Urine bile acids and urine creatinine analyses were performed at a clinical chemistry lab.

Series [3] can be described thus: Bioavailability study in mice. The series is classed as in vivo. As to conditions: male, mouse, plasma, 1 mg/kg intravenous, 10 mg/kg oral. On the procedure:
as §1

`CCCC[C@]1(C)CN(c2ccccc2)c2cc(SC)c(O/C=C(\F)C(=O)O)cc2S(=O)(=O)C1` (single isomer, unassigned) [Example 2]: the values for the bioavailability in series [1], in series [3] (C57BL/6 mice) and in series [3] (CD1 mice) were 34.5%, 15.7% and 32.1 to 55.7%, respectively. Further, the apparent permeability from apical to basolateral (Papp A→B) at 120 min, 10 µM in series [2] was found to be 36 nm/s. Besides, the Papp B→A at 120 min, 10 µM in series [2] was found to be 66 nm/s. Moreover, the IC50 amounted to 0.0174 µM on Human LBAT and 0.0227 µM on Human IBAT. The “urinary total bile acids increase versus baseline” value in the series with urinary total bile acids is on record as 5- to 10 fold.

`CCCC[C@@]1(C)CN(c2ccccc2)c2cc(SC)c(O/C=C(\F)C(=O)O)cc2S(=O)(=O)C1` (single isomer, unassigned) [Example 3]: in series [2], the apical-to-basolateral permeability (Papp A→B) at 120 min, 10 µM amounted to 36 nm/s and the Papp B→A at 120 min, 10 µM turned out to be 93 nm/s. On Human LBAT, the half-maximal inhibitory concentration (IC50) is 0.0092 µM. Besides, on Human IBAT, the IC50 came to 0.735 µM.

For the compound `CCCC1(C)CN(c2ccccc2)c2cc(SC)c(OC=CC(=O)O)cc2S(=O)(=O)C1` (single isomer, unassigned) [Example 5], the 50% inhibitory concentration (IC50) on Human LBAT was found to be 0.032 µM.

Consider `CCC[C@]1(C)CN(c2ccccc2)c2cc(SC)c(O/C=C/C(=O)O)cc2S(=O)(=O)C1` (single isomer, unassigned) [Example 6], for which the IC50 on Human LBAT was determined as 1.05 µM; at Human IBAT it was 0.678 µM.

In series [2], `CCC[C@]1(C)CN(c2ccccc2)c2cc(SC)c(O/C=C(\F)C(=O)O)cc2S(=O)(=O)C1` (single isomer, unassigned) [Example 8] registered a Papp A→B at 120 min, 10 µM of 36 nm/s and an apparent permeability from basolateral to apical (Papp B→A) at 120 min, 10 µM of 62 nm/s. Moreover, the IC50 at Human LBAT stood at 0.0052 µM. Also, the IC50 on Human IBAT came to 0.465 µM.

Regarding `CCC[C@@]1(C)CN(c2ccccc2)c2cc(SC)c(O/C=C(\F)C(=O)O)cc2S(=O)(=O)C1` (single isomer, unassigned) [Example 9], the concentration for half-maximal inhibition (IC50) came to 0.056 µM at Human LBAT and 0.186 µM at Human IBAT.

`CCCCC1(C)CN(c2ccccc2)c2cc(SC)c(O/C=C(\F)C(=O)O)cc2S(=O)(=O)C1` (centres unmarked) [Example 1, (Z)-3-((3-buty-3-methyl-7-(methylthio)-1,1-dioxido-5-phenyl-2,3,4,5-tetrahydro-1,5-benzothiazepin-8-yl)oxy)-2-fluoroacrylic acid]: the IC50 at Human LBAT came out at 0.0144 µM; on Human IBAT it was 0.0237 µM.

With `CCCC1(C)CN(c2ccccc2)c2cc(SC)c(O/C=C/C(=O)O)cc2S(=O)(=O)C1` (centres unmarked) [Example 4, (E)-3-((3-methyl-7-(methylthio)-1,1-dioxido-5-phenyl-3-propy-2,3,4,5-tetrahydro-1,5-benzothiazepin-8-yl)oxy)acrylic acid], the half-maximal inhibitory concentration (IC50) at Human LBAT was 0.066 µM; on Human IBAT, 0.564 µM.

Regarding `CCCC1(C)CN(c2ccccc2)c2cc(SC)c(O/C=C(\F)C(=O)O)cc2S(=O)(=O)C1` (centres unmarked) [Example 7, (Z)-2-fluoro-3-((3-methyl-7-(methylthio)-1,1-dioxido-5-phenyl-3-propy-2,3,4,5-tetrahydro-1,5-benzothiazepin-8-yl)oxy)acrylic acid], the figures for the concentration for half-maximal inhibition (IC50) on Human LBAT and at Human IBAT were 0.023 µM and 0.435 µM, respectively.

On to `CCC1(C)CN(c2ccccc2)c2cc(SC)c(O/C=C(\F)C(=O)O)cc2S(=O)(=O)C1` (centres unmarked) [Example 10, (Z)-3-((3-ethyl-3-methyl-7-(methylthio)-1,1-dioxido-5-phenyl-2,3,4,5-tetrahydro-1,5-benzothiazepin-8-yl)oxy)-2-fluoroacrylic acid], for which the figures for the 50% inhibitory concentration (IC50) on Human LBAT and on Human IBAT were 0.083 µM and 0.906 µM, respectively.
